Consider 41 molecules from PubChem BioAssay AID1996.

In brackets after ≈: the same amount, converted by molar mass.

By kinetic solubility is commonly meant solubility judged after dilution from a stock solution rather than from solid.

For the data set the following is noted: buffer; pH 7.4; 200.0 µM.
On to `O=C1C(c2ccccc2)NC(=S)N1C1CCCCC1` (stereo unspecified), for which the solubility (kinetic) came out at 2.4 µg/mL (≈ 8.75 µM). The molecule `Cc1ccc(CNC(=O)CSCc2ccccc2)cc1` showed a kinetic solubility of 19.7 µg/mL (≈ 69 µM). The molecule `Cc1[nH]c2ccccc2c1C(=O)C(=O)N1CCN(C)CC1` displayed a solubility (kinetic) of more than 42.8 µg/mL. The value for `CC(=O)c1nc2ccccc2n1CCc1ccccc1` was 27.5 µg/mL (≈ 104 µM); that for `O=C(Nc1ccc(F)cc1)c1ccc2ncsc2c1` was 10.3 µg/mL (≈ 37.8 µM). `COc1cc(C(CN)CC(=O)O)ccc1O.Cl` (stereo unspecified) displayed a kinetic solubility of more than 39.3 µg/mL. The value for `O=C(/C(=C(\O)c1ccccc1)c1ncc[nH]1)c1ccccc1` was 9.5 µg/mL (≈ 32.7 µM); that for `Cl.O=C(O)CC1NCCc2ccccc21` (stereo unspecified) was more than 34.2 µg/mL.

On to `Cc1nn(CCCC(=O)Nc2cccnc2)c(C)c1[N+](=O)[O-]`, for which the kinetic solubility was more than 45.5 µg/mL. In the case of `Cc1ccc(S(=O)(=O)CCN2C=CC(C(F)(F)F)=NCC2)cc1`, the solubility (kinetic) is 51.4 µg/mL (≈ 148 µM).

In turn, `CC1CCCCC1NC(=O)COC(=O)c1ccc([N+](=O)[O-])o1` (stereo unspecified) displayed a kinetic solubility of more than 46.5 µg/mL. For the molecule `COCCNc1nc2nonc2nc1N(C)Cc1ccc(C)cc1`, the solubility (kinetic) was more than 49.3 µg/mL. For the molecule `NC(=O)Cn1cc(C(=O)COc2ccccc2)c2ccccc21`, the solubility (kinetic) was 14.6 µg/mL (≈ 47.4 µM). In turn, `O=C(CSc1ccc(Cl)cc1)NCc1ccco1` registered a kinetic solubility of 16.3 µg/mL (≈ 57.8 µM). Next, `COc1ccc(/C=C/C(=O)NCc2ccc3c(c2)OCO3)cc1OC`: 2.8 µg/mL (≈ 8.2 µM); `CC(=O)Nc1ccc(NC(=O)C(C)Sc2nnc(-c3ccc4c(c3)OCO4)o2)cc1` (stereo unspecified): more than 64 µg/mL. For the molecule `CN(Cc1ccccc1)C(=O)N1CCOCC1`, the solubility (kinetic) was more than 35.1 µg/mL. The value for `CCC1CCC/C1=N\NC(=O)c1ccc(Cl)cc1` (stereo unspecified) was more than 39.7 µg/mL; that for `O=C(CC1SC(N2CCCCC2)=NC1=O)Nc1cccc(C(=O)NCc2ccccc2)c1` (stereo unspecified) was more than 67.6 µg/mL. Next, `Clc1cnc2nc(SC/C=C/c3ccccc3)[nH]c2c1`: less than 0.2 µg/mL; `Cc1ccc(CC2C(=O)N(c3nc(C)cc(C)n3)C(=O)C2C)cc1` (stereo unspecified): more than 48.5 µg/mL; `CCOC(=O)c1ccc(NC(=S)Nc2cc(C)cc(C)n2)cc1`: less than 0.2 µg/mL. `COc1ccccc1NS(=O)(=O)c1ccc(C(=O)NCC(c2ccc(F)cc2)N2CCOCC2)cc1` (stereo unspecified) displayed a solubility (kinetic) of more than 77 µg/mL.

With `Cc1cc(Cl)ccc1NC(=S)NCCc1ccc(Cl)cc1`, the kinetic solubility is less than 0.4 µg/mL.

In the case of `Cc1cc(=O)[nH]c(SCC(=O)N2CC3(C)CC2CC(C)(C)C3)n1` (stereo unspecified), the kinetic solubility was more than 50.3 µg/mL. For `Cl.c1ccc2c(c1)nc1n2CCN1CCN1CCCC1`, the solubility (kinetic) is more than 49.4 µg/mL. The value for `Cc1cccc(OCCCn2c(=O)oc3ccccc32)c1` was 4.6 µg/mL (≈ 16.2 µM); that for `Cn1c(=O)c2c(nc(N3CCCC3)n2C)n(C)c1=O` was more than 39.5 µg/mL; that for `O=C(NC1CCCCC1)c1ccc2c(c1)OCCO2` was 34.8 µg/mL (≈ 133 µM). The value for `C/C(=N\O)c1noc(C)c1C(=O)Nc1nccs1` was 2 µg/mL (≈ 7.51 µM). Next, `Cc1ccc(NC(=O)C2Cc3ccccc3O/C2=N\O)cc1C` (stereo unspecified): 3.8 µg/mL (≈ 12.2 µM). The molecule `Clc1ccccc1OCCCCN1CCNCC1.O=C(O)C(=O)O` returned a solubility (kinetic) of more than 53.8 µg/mL. The value for `CCCCCC(=O)Nc1c2c(nc3ccccc13)CCC2` was 18.7 µg/mL (≈ 66.2 µM); that for `Cn1c(=O)n(C)c2cc(NC(=O)COc3ccccc3)ccc21` was more than 46.7 µg/mL; that for `COc1ccccc1CC(=O)Nc1ccc2c(C)cc(=O)oc2c1` was 3.6 µg/mL (≈ 11.1 µM). Next, `Cc1ccc(C2=NN(CC(=O)NCc3cccs3)C(=O)CC2)cc1`: more than 51.2 µg/mL; `CCOc1ccc(Br)cc1S(=O)(=O)NC1=NCCCCC1`: more than 56.3 µg/mL; `CCOc1ccc(-n2c(C)c(C(C)=O)c3cc(OC(C)=O)ccc32)cc1`: less than 0.8 µg/mL. The value for `O=C(COC(=O)c1ccc[n+]([O-])c1)Nc1cc([N+](=O)[O-])ccc1Cl` was more than 52.8 µg/mL.

Turning to `O=C(CN1CCN(c2ccccn2)CC1)Nc1cc(F)ccc1F`, the kinetic solubility is more than 49.9 µg/mL. For the molecule `CCNc1nc(NCC)nc(NC(N)=S)n1`, the solubility (kinetic) turned out to be 9 µg/mL (≈ 37.3 µM).
